Laboratory results published in the NIST ThermoML archive (doi:10.1016/j.fluid.2011.01.018).

Experiments:
[1] = 101 kPa, Liquid, Vibrating tube method
[2] = xn = mol fraction of the nth substance listed; settings: 101 kPa, Liquid, Vibrating tube method

CC(C)CC(C)(C)C [2,2,4-trimethylpentane]
[1]
Settings | mass density [kg/m3]
293 K | 691.88
303 K | 683.64
313 K | 675.3
323 K | 666.84

CC(C)CC(C)(C)C [2,2,4-trimethylpentane] + c1ccccc1
mass density [kg/m3], [2]
Settings | x2 = 0 | x2 = 0.1248 | x2 = 0.1642 | x2 = 0.3682 | x2 = 0.4538 | x2 = 0.502 | x2 = 0.5388 | x2 = 0.6023 | x2 = 0.6896 | x2 = 0.9443
293 K | 691.88 | 704.06 | 708.26 | 733.74 | 746.53 | 754.34 | 760.7 | 772.44 | 790.37 | 859.13
303 K | 683.64 | 695.66 | 699.8 | 724.94 | 737.57 | 745.27 | 751.54 | 763.15 | 780.86 | 848.73
313 K | 675.3 | 687.16 | 691.24 | 716.05 | 728.51 | 736.12 | 742.33 | 753.77 | 771.25 | 838.26
323 K | 666.84 | 678.53 | 682.55 | 707.04 | 719.33 | 726.85 | 732.96 | 744.28 | 761.54 | 827.7

c1ccccc1 [benzene]
[1]
Settings | mass density [kg/m3]
293 K | 878.98
303 K | 868.3
313 K | 857.57
323 K | 846.76

c1ccccc1 [benzene] + C1CCCCC1
[2], x1 = 1
Settings | mass density [kg/m3]
293 K | 878.98
303 K | 868.3
313 K | 857.57
323 K | 846.76

c1ccccc1 [benzene] + CC(C)CC(C)(C)C
[2], x1 = 1
Settings | mass density [kg/m3]
293 K | 878.98
303 K | 868.3
313 K | 857.57
323 K | 846.76

C1CCCCC1 [cyclohexane]
[1]
Settings | mass density [kg/m3]
293 K | 778.54
303 K | 769.13
313 K | 759.6
323 K | 749.94

C1CCCCC1 [cyclohexane] + c1ccccc1
mass density [kg/m3], [2]
Settings | 293 K | 303 K | 313 K | 323 K
x2 = 0 | 778.54 | 769.13 | 759.6 | 749.94
x2 = 0.1 | 784.99 | 775.47 | 765.87 | 756.14
x2 = 0.1805 | 790.71 | 781.14 | 771.46 | 761.67
x2 = 0.2347 | 794.92 | 785.3 | 775.57 | 765.73
x2 = 0.3029 | 800.47 | 790.79 | 781 | 771.1
x2 = 0.3801 | 807.1 | 797.33 | 787.47 | 777.5
x2 = 0.4453 | 813.09 | 803.25 | 793.32 | 783.27
x2 = 0.5223 | 820.56 | 810.63 | 800.62 | 790.48
x2 = 0.5814 | 826.62 | 816.62 | 806.53 | 796.34
x2 = 0.6563 | 834.72 | 824.62 | 814.44 | 804.14
x2 = 0.7135 | 841.21 | 831.03 | 820.77 | 810.41
x2 = 0.7654 | 847.44 | 837.18 | 826.83 | 816.41
x2 = 0.8191 | 854.16 | 843.82 | 833.39 | 822.89
x2 = 0.8771 | 861.75 | 851.31 | 840.79 | 830.19
x2 = 0.9161 | 867.03 | 856.52 | 845.95 | 835.28
